Results published in patent publication US9145375B2, “Quinazolinone compounds” (PRANA BIOTECHNOLOGY LIMITED, priority 2008, dated 2015).
Several values for one entry are separate records, joined by “and”; a condition that tells them apart may be missing. Equal entries are not always repeated.

Legend:
[1] = system: generation of hydrogen peroxide (H2O2) by iron; assay: H2O2 Inhibition Assay; format: biochemical
In short: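 FeCl3 or copper was reacted with ascorbic acid for 1 hr at 37° C with DCF and horseradish peroxidase across increasing test-compound concentrations. Generated H2O2 was read by fluorescence at ex 485/em 530 nm. Lower values mean stronger inhibition of H2O2 production.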

Fe-DA = assay: H2O2 assay, Fe-DA (% cf. Fe 0.4 μM/DA 50 μM); format: biochemical; details: Fe 0.4 μM/DA 50 μM
In short: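 A fluorescence assay measures how well a test compound suppresses hydrogen peroxide (H2O2) production by iron in the presence of a reducing substrate. Iron (FeCl3) and the reductant are incubated with the fluorescent probe DCF and horseradish peroxidase for 1 hr at 37° C. H2O2 is read at excitation 485 nm and emission 530 nm across increasing test compound concentrations.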

Neuronal cortical cells = assay: Cytotox (% viable); Primary Neuronal Cells Neurotoxicity Assay; format: cell-based, mouse; details: cell type not given, repeat values given
Experimental: Assay 2 (a). Primary Neuronal Cells Neurotoxicity Assays
Cortical cultures were prepared as previously described (White et al., 1998). Embryonic day 14 BL6Jx129sv mouse cortices were removed, dissected free of meninges and dissociated in 0.025% (wt/vol) trypsin. Dissociated cells were plated in 48 well culture plates at a density of 2×10^6 cells/mL in MEM with 25% (vol/vol) FCS and 5% (vol/vol) HS and incubated at 37° C., 2 hrs. Media was then replaced with Neurobasal media (Invitrogen Life Technologies) and B27 supplements (Invitrogen Life Technologies). Cultures were maintained at 37° C. in 5% CO2. Prior to experimentation, the culture medium was replaced with Neurobasal media and B27 minus antioxidants (Invitrogen Life Technologies).
Neuronal cortical cells were cultured for five days as per Assay 2 in NB media and B27 supplement.
On day six the test compounds were added to the neuronal cell cultures in NB media and B27 supplement minus antioxidants.
Test compounds were dissolved in 100% DMSO to a concentration of 2.5 mM (10 mM if excess compound was weighed out per vial—then diluted to 2.5 mM). 2.5 mM stock solution was serially diluted 1 in 10 to give working solutions of 250 uM, 25 uM, 2.5 uM. Test compounds were not added directly to cells, instead they were added to a 48 well ‘Drug Plate’ as comprised below: • Preparation of “Drug Plate”:
Well 1: 576 ul NB+B27 (no antioxidant)*+24 ul 2.5 uM test compound
Well 2: 576 ul NB+B27 (no antioxidant)+24 μl 25 uM test compound
Well 3: 576 ul NB+B27 (no antioxidant)+24 ul 250 uM test compound
Well 4: 576 ul NB+B27 (no antioxidant)+24 ul 2.5 uM test compound
Well 5: 576 ul NB+B27 (no antioxidant)+24 ul 25 uM test compound
Well 6: 576 ul NB+B27 (no antioxidant)+24 ul 250 uM test compound
Well 7: 576 ul NB+B27 (no antioxidant)+24 ul test compound diluent**
Well 8: 600 ul NB+B27 (no antioxidant)
The Drug Plate was incubated at 37° C. for 15 mins. 200 ul of each well was added in triplicate to the corresponding cell plate. The cell plate was incubated at 37° C., for 4 days, (2 compounds are tested on each plate of cells).
*NB media and B27 (no antioxidants),
**PBT diluent 10% DMSO in NB+1327 (no antioxidants)
On completion of the assay, 1/10 volume MTS was added per well of plate (ie 25 ul/250 ul). The plates were incubated at 37° C. for 2 hrs, and then absorbance was read at 560 nm.

[2] = system: M17 human neuroblastoma cells; assay: Metal Uptake Assay (metal transport); format: cell-based; details: 10 μM Cu + 10 μM compound, 5 hours
In short: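 Copper uptake: M17 cells at ~70% confluence exposed 5 h at 37 °C to 10 μM CuCl2 plus 10 μM test compound in medium. Pellets digested in nitric acid; cellular Fe, Cu and Zn quantified by ICP-MS against multi-element standards with yttrium internal standard.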

M17 = assay: Cytotox (% viable), cells marked M17; format: cell-based, human; details: repeat values given
CYP3A4 = CYP3A4 (Homo sapiens, UniProt P08684); assay: CYP450 isoform inhibition, recombinant enzymes, analysis by LCMS: CYP3A4; format: in vitro ADME; design: purchased
Experimental: CYP450 Isoform Inhibition
Microsomes containing individual recombinant human CYP450 enzymes (Supersomes™) were incubated in the presence of a fixed concentration of a probe substrate that forms a fluorescent metabolite upon CYP450-mediated metabolism.
A known inhibitor of each CYP450 isoform was included in each assay as a positive control and its IC50 was compared to literature values for acceptance of the assay.
The inherent fluorescence of the test compound was examined under the specific assay conditions for each isoform before and after the fluorometric assay to identify any compound-specific interference due to the parent compound or metabolic products. If the background fluorescence in these samples increased due to compound-specific interference, then the CYP450 inhibition samples were quantified using LC/MS assay.

[3] = Plasma Protein Binding, mouse; format: in vitro ADME
[4] = Plasma Protein Binding, rat; format: in vitro ADME

Chain of CYP3A4 (P08684 whole entry, canonical isoform): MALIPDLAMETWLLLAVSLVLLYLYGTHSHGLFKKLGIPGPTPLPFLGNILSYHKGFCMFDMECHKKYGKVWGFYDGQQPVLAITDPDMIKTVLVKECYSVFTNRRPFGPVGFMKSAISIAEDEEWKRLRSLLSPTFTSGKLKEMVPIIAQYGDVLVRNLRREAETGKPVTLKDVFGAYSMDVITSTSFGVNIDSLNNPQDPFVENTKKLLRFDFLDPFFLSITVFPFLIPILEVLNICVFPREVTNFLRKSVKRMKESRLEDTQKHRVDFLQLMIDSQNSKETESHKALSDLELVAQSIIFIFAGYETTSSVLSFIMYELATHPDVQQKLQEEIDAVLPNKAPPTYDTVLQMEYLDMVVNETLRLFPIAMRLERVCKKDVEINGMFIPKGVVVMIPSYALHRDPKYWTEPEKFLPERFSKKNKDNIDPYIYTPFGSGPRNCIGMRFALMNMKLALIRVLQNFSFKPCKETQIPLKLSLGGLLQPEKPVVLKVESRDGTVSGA

SMILES | IC50 [1] [nM] | IC50 (CYP3A4) [nM] | fraction unbound [3] | fraction unbound [4] | Fe-DA % cf. Fe 0.4 μM/DA 50 μM (Fe-DA) [%] | Cytotox (% viable at 1 uM) (Neuronal cortical cells) | Cytotox (% viable at 10 uM) (Neuronal cortical cells) | Metal transport [2] | Cytotox (% viable at 1 uM) (M17) | Cytotox (% viable at 10 uM) (M17; 10 uM) [%]
C#CCN(C)Cc1nc2c(O)c(Cl)cc(Cl)c2c(=O)n1CC1CC1 [Compound F4387] | 460 |  |  |  | 77 |  |  | Metal transport 111% | 104.0% and 92.7% and 95.9% and 100.7% | 
CCN(CC)Cc1nc2c(O)c(Cl)cc(Cl)c2c(=O)n1CC1CC1 [Compound F4385] | 910 |  |  |  | 86 |  |  | Metal transport 9% | 99.2% and 105.0% | 97.7
CNCc1nc2c(O)c(Cl)cc(Cl)c2c(=O)n1C [Compound F4161] |  | 13800 |  |  |  |  |  |  |  | 
Br.CCNCc1nc2c(O)c(Cl)cc(Cl)c2c(=O)n1C [Compound F4496] | 830 |  |  |  | 45 | 102.7% and 114.6% | 59.4% and 101.2% | Metal transport 7% |  | 
CCn1c(CN(C)C)nc2c(O)c(Cl)cc(Cl)c2c1=O.Cl [Compound F4268] |  |  | 0.178 to 0.203 | 0.052 to 0.055 |  |  |  |  |  | 

Second part, led by results:

IC50 [1] [nM] | IC50 (CYP3A4) [nM] | fraction unbound [3] | fraction unbound [4] | SMILES | Fe-DA % cf. Fe 0.4 μM/DA 50 μM (Fe-DA) [%] | Cytotox (% viable at 1 uM) (Neuronal cortical cells) | Cytotox (% viable at 10 uM) (Neuronal cortical cells) | Metal transport [2] | Cytotox (% viable at 1 uM) (M17) | Cytotox (% viable at 10 uM) (M17; 10 uM) [%]
770 |  |  |  | CCNCc1nc2c(O)c(Cl)cc(Cl)c2c(=O)n1CC [Compound F4495] | 45 | 89.3% and 112.8% | 47.9% and 57.1% | Metal transport 8% |  | 
1930 |  |  |  | Br.CCn1c(CNC)nc2c(O)c(Cl)cc(Cl)c2c1=O [Compound F4486] | 56 | 97.9% and 101.4% | 52.2% and 43.3% | Metal transport 14% |  | 
 |  | 0.582 to 0.658 | 0.074 to 0.116 | CN(C)Cc1nc2c(O)c(Cl)cc(Cl)c2c(=O)n1C [Compound F4269, 5,7-Dichloro-2-(dimethylamino)methyl-8-hydroxy-3-methylquinazolin-4(3H)-one] |  |  |  |  |  | 
